# Measured values from patent US4939163A, “Anticonvulsant agents” (Eli Lilly and Company, priority 1989, dated 1990).
# Tested on: tonic extensor seizures elicited by maximal electroshock
# Assay: electroshock induced convulsion inhibition assay (E.S.)
# Assay type: in vivo, Cox standard strain albino male mice
# Details: mouse, oral dose (gavage), 0.1 second 50 milliampere corneal electroshock, inhibition of extensor tonic convulsions, at time of optimal response
# Method: In the electroshock induced convulsion inhibition assay (E.S.), the compound to be tested was suspended in acacia and administered by gavage to each of ten Cox standard strain albino male mice (18-24 g) at the dose level being investigated. […] The animals were examined and evaluated immediately after the electroshock for the occurrence of clonic, flexor tonic, or extensor tonic convulsions, or death and the ED50 was determined for each compound as the dose which inhibited the occurrence of extensor tonic convulsions in one half of the animals immediately after the electroshock. For comparison, 18 milliamperes was usually sufficient to produce extensor tonic convulsions in about half of the control animals; at 50 milliamperes, almost all control animals (receiving vehicle only) died. The test results summarized in Table I are reported as the ED50 values at the time interval found to provide an optimal response after dosing.
row,SMILES,ED50
1,"Cc1cccc(C)c1NC(=O)c1ccc(C(F)(F)F)cc1 [Example 1, N-(2,6-dimethylphenyl)-4-(trifluoromethyl)benzamide]",~225 mg/kg
2,"Cc1cccc(C)c1NC(=O)c1ccc(C#N)cc1 [Example 2, 4-Cyano-N-(2,6-dimethylphenyl)benzamide]",13.2 mg/kg
3,"Cc1ccc(C(=O)Nc2c(C)cccc2C)cc1 [Example 3, N-(2,6-dimethylphenyl)-4-methylbenzamide]",~250 mg/kg
4,"COc1ccc(C(=O)Nc2c(C)cccc2C)cc1 [Example 4, N-(2,6-dimethylphenyl)-4-methoxybenzamide]",15 mg/kg
5,"CSc1ccc(C(=O)Nc2c(C)cccc2C)cc1 [Example 5, N-(2 6-dimethylphenyl)-4-(methylthio)benzamide]",~75 mg/kg
6,"Cc1cccc(C)c1NC(=O)c1ccc(N(C)C)cc1 [Example 6, 4-(Dimethylamino)-N-(2,6-dimethylphenyl)benzamide]",3.65 mg/kg
7,"CCNc1ccc(C(=O)Nc2c(C)cccc2C)cc1 [Example 7, N-(2,6-dimethylphenyl)-4-(ethylamino)benzamide]",2.45 mg/kg
8,"CNc1ccc(C(=O)Nc2c(C)cccc2C)cc1 [Example 8, N-(2,6-dimethylphenyl)-4-(methylamino)benzamide]",2 mg/kg
9,"CCCN(C)c1ccc(C(=O)Nc2c(C)cccc2C)cc1 [Example 9, N-(2,6-dimethylphenyl)-4-(methylpropylamino)benzamide]",4.6 mg/kg
10,"Cc1cccc(C)c1NC(=O)c1ccc(-n2ccnc2)cc1.Cl [Example 10, N-(2,6-dimethylphenyl)-4-(1H-imidazol-1-yl)benzamide hydrochloride]",~50 mg/kg
11,"Cc1cccc(C)c1NC(=O)c1ccc(CN)cc1.Cl [Example 11, 4-(Aminomethyl)-N-(2,6-dimethylphenyl)benzamide hydrochloride]",38 mg/kg
12,"Cc1cccc(C)c1NC(=O)c1ccc(C(N)=O)cc1 [Example 12, N-(2,6-Dimethylphenyl)-1,4-benzenedicarboxamide]",~75 mg/kg
13,"Cc1cccc(C)c1NC(=O)c1ccc([S+](C)[O-])cc1 (stereo not shown) [Example 13, N-(2,6-dimethylphenyl)-4-(methylsulfinyl)benzamide]",13 mg/kg
14,"Cc1cccc(C)c1NC(=O)c1ccc(S(C)(=O)=O)cc1 [Example 14, N-(2,6-dimethylphenyl)-4-(methylsulfonyl)benzamide]",14 mg/kg
15,"Cc1cccc(C)c1NC(=O)c1ccc(O)cc1 [Example 15, N-(2,6-dimethylphenyl)-4-hydroxybenzamide]",11.2 mg/kg

# Tested on: seizures in man
# Assay: not given
# Details: Gilman, Goodman, and Gilman, 6th Ed., p. 455; cited from earlier work
row,SMILES,plasma level at which seizures are controlled
1,O=C1NC(=O)C(c2ccccc2)(c2ccccc2)N1 [phenytoin],≥ 10 µg/mL
